According to US6913695B2, “Sanitization of chromatographic media” (Bayer HealthCare LLC, priority 2003, dated 2005):
Where a name gives a salt, the structure may show the parent alone.

How the values were obtained:
[1] = system: bovine viral diarrhea virus (BVDV); assay: Column sanitization after viral clearance run, BVDV; assay type: cell-based; conditions: column treated with 7.2 M guanidine hydrochloride, pH 3.0, after a viral clearance run
Method: Solutions tested included a variety of alcohols, detergents, and chaotropic agents including guanidine hydrochloride (Table 2). […] A series of experiments were performed to identify conditions under which 8 M guanidine hydrochloride would stay in solution. […] Additionally, when mixed with virus (1 part virus:9 parts acidic guanidine hydrochloride; final guanidine hydrochloride concentration=7.2 M) inactivation to the limit of detection occurred within 30 minutes at 4° C. Similar experiments were carried out treating the benzamidine-SEPHAROSE column with 7.2 M guanidine hydrochloride, pH 3.0, following a viral clearance evaluation run.

porcine parvovirus (PPV) = assay: Inactivation of PPV in solution by test solutions (TCID50 titration); assay type: cell-based
PrP^Sc = conditions: pH 3
porcine parvovirus; PPV = assay: Porcine parvovirus clearance and sanitization across the benzamidine-SEPHAROSE column (TCID50 titration on MPK cells); assay type: cell-based

In the case of `N=C(N)N` [guanidine hydrochloride], the “virus inactivation on the benzamidine-SEPHAROSE column” value [1] is reported as “inactivation to the limit of assay detection”, the “time to inactivation to the limit of detection” value (porcine parvovirus (PPV); 1 part virus:9 parts acidic guanidine hydrochloride, final concentration 7.2 M, 4° C.) is reported as ≤ 30 min and the “inactivation of virus in solution” value (porcine parvovirus (PPV); 4 M guanidine hydrochloride, pH 3.0) is reported as “effective viral inactivation”. The “inactivation of virus in solution” value (porcine parvovirus (PPV); 6.5 M guanidine hydrochloride, pH 4.0, 4° C.) was “inactivation of virus”, the “killing of virus (PPV)” value (porcine parvovirus (PPV); 8 M guanidine hydrochloride, room temperature, initial screen) was “effective at killing virus to the detection limit of the assay” and the “decrease in PrP^RES immunoreactivity, as compared to the non-treated control” value (PrP^Sc) was ≥ 2.5 log. The precipitation (8 M guanidine acidified to pH 4.0 or 3.0, 4° C.) was “did not precipitate”, the “precipitation at the lower temperature” value (8 M guanidine, not acidified, 4° C.) was “precipitation occurred” and the “inactivation of chromatographic column-associated virus (benzamidine-SEPHAROSE resin)” value (porcine parvovirus; PPV; 7.2 M guanidine hydrochloride, pH 3.0) was “can be inactivated”. For the same compound, the “virus inactivation on the benzamidine-SEPHAROSE column” value (porcine parvovirus; PPV; PPV, column treated with 7.2 M guanidine hydrochloride, pH 3.0, after a viral clearance run) was “inactivation to the limit of assay detection”.
